Test results taken from patent US20100137411A1, “RAS-MEDIATED EPIGENETIC SILENCING EFFECTORS AND USES THEREOF” (University of Massachusetts, priority 2007, published 2010).

B1: DNMT1: shRNA knocking down DNMT1; Open Biosystems V2MM_46797 or synthesized shRNA SEQ ID NO: 5 (nucleic acid)
chain: TGCTGTTGACAGTGAGCGCGCCCATCCTCAGGGACCATATTAGTGAAGCCACAGATGTAATATGGTCCCTGAGGATGGGCTTGCCTACTGCCTCGGA

Key:
Assay type in all cases: cell-based, mouse
Fas promoter [1] = experiment: Methylated DNA immunoprecipitation (MeDIP) of the Fas promoter; settings: K-ras NIH 3T3 cells, 10 μM 5-aza for 72 h
Excerpt: To facilitate analysis of the methylation status of these three regions in the 28 K-ras NIH 3T3 KD cell lines we established and validated a rapid methylated DNA immunoprecipitation (MeDIP) assay, in which the antibody is directed against 5-methyl-cytosine (Weber, M. et al., Nat. Genet. 37, 853-862 (2005)). […] We then assessed the three hypermethylated Fas promoter regions in each of the 28 K-ras NIH 3T3 KD cell lines.
(§1) Chromatin immunoprecipitation (ChIP) and methylated DNA immunoprecipitation (MeDIP). ChIP assays were performed using extracts prepared 7 days following retroviral transduction and puromycin selection. […] MeDIP and ChIP products were visualized by autoradiography, or analyzed by quantitative real-time PCR using Platinum SYBR Green qPCR SuperMix-UDG with Rox (Invitrogen). […] Quantitative real time RT-PCR. […] Reverse transcription was performed using SuperScript II Reverse Transcriptase (Invitrogen) as per the manufacturer's instructions, followed by quantitative real-time PCR as described above. […] Tumour dimensions were measured every 3 days from the time of appearance of the tumours, and tumour volume was calculated using the formula π/6×(length)×(width)^2. […]

[2] = system: Sfrp1, Par4/Pawr, Plagl1, H2-K1 and Lox; experiment: qRT-PCR expression of other epigenetically silenced genes in K-ras NIH 3T3 cells; settings: 10 μM 5-aza for 72 h
Experimental: (§2) Cell culture. NIH 3T3 (ATCC# CRL-1658) and K:Molv NIH 3T3 (ATCC# CRL-6361; referred to here as K-ras NIH 3T3) cells were maintained in DMEM supplemented with 10% FCS at 37° C. and 5% CO2. For 5-aza-2′-deoxycytidine (5-aza) treatment, K-ras NIH 3T3 cells were treated with 10 μM 5-aza for 72 h.
as §1

Fas = experiment: Immunoblot analysis of Fas re-expression in K-ras NIH 3T3 cells; settings: 10 μM 5-aza for 72 h
Experimental: as §2
Immunoblot analysis. To prepare cell extracts, K-ras NIH 3T3 knockdown cell lines were harvested 7 days following retroviral transduction and puromycin selection (1.5 μg ml^−1) and lysed by boiling in 1× SDS sample buffer (Laemmli buffer) for 5 min. Proteins were resolved by 12% SDS-PAGE. Immunoblot analysis was performed using an anti-Fas (sc-716; Santa Cruz) or anti-p21 Ras (ab16795; Abcam) antibody to monitor expression of K-Ras (as a loading control), and an appropriate HRP-conjugated secondary antibody. Proteins were visualized using SuperSignal West Pico Luminol/Enhancer Solution (Pierce).

Fas promoter [3] = experiment: Bisulphite sequencing of the Fas promoter; settings: shRNA knockdown
Experimental: Bisulphite sequencing. Bisulphite modification was carried out essentially as described (Frommer, M. et al., Proc. Natl. Acad. Sci. USA 89, 1827-1831 (1992)) except that hydroquinone was used at a concentration of 125 mM during bisulphite treatment carried out in the dark and DNA was desalted on Qiaquick columns (Qiagen) after the bisulphite reaction. The regions analyzed were amplified by nested PCR. The first round comprised 24 cycles at 94° C. for 1 min, 48° C. for 1 min 30 s, and 72° C. for 1 min. One-tenth of the product was used as substrate for the second round of PCR comprising 28 cycles at 94° C. for 1 min, 48° C. for 1 min 30 s, 72° C. for 1 min.

Row | Molecule | hypermethylation of Fas promoter TSS/DS region (MeDIP) (Fas promoter [1]) | expression of Sfrp1, Par4/Pawr, Plagl1, H2-K1 and Lox (all five genes) [2] | Fas expression (Fas) | hypermethylation of three Fas promoter regions (bisulphite sequencing) (Fas promoter [3]; H-ras transformed C3H10T1/2 cells) | hypermethylation of TSS/DS region of the Fas promoter (bisulphite sequence analysis) (Fas promoter [3]; K-ras NIH 3T3 cells)
1 | Nc1ncn([C@H]2C[C@H](O)[C@@H](CO)O2)c(=O)n1 [5-aza, 5-aza-2′-deoxycytidine] | not hypermethylated | re-expressed | restored Fas expression |  | 
2 | B1 |  |  |  | not | no longer hypermethylated
